Measured values reported in patent US11458189B2, “Cytoprotective drugs” (BALMES TRANSPLANTATION, priority 2017, dated 2022).
Starred links: 1 amine or outer side, 2 acyl side, 3 side chain; linkers in the order of their positions; H or OH if unused. Positions of bridges follow the written chain, without caps; N, C: chain ends. Non-standard residues stand in square brackets, D forms with d. Residues, ends and D or L forms follow the SMILES beside them. *: point of attachment. hTyr(3S-OH,4S-OH,3'-OSO3H) = N[C@H](C(=O)O)[C@H](O)[C@@H](O)c1ccc(O)c(OS(=O)(=O)O)c1; Orn(4R-OH,5R-OH) = O=C([C@H](C[C@@H](O)[C@@H](O)N[*:3])N[*:1])[*:2]; Pro(3S-OH,4S-Me) = C[C@H]1CN[C@H](C(=O)O)[C@H]1O; X1 = CCCCCOc1ccc(-c2cc(-c3ccc(C(=O)*)cc3)no2)cc1; Gln(3R-OH) = NC(=O)C[C@@H](O)[C@H](N)C(=O)O; Hyp = O=C(O)[C@@H]1C[C@@H](O)CN1

System: Rat Primary Kidney Glomerular Endothelial cells
Experiment: Oxygen and glucose deprivation followed by replenishment, cell survival (calcein AM), rat glomerular endothelial cells;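 for Survival rate (%): 100% is hypoxia control with glucose and 0% is untreated OGD control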
Type: cell-based
Experimental: Anidulafungin and micafungin were tested on Human Renal Glomerular Endothelial Cells (HRGEC, Innoprot P10665), on Human Renal Proximal Tubular Epithelial Cells (HRPTEpiC, Innoprot P10662), on Human Astrocytes (HA, caltag SC-1800), on Human Cardiac Microvascular Endothelial Cells (HCMEC, Caltag SC-6000), on Human Hepatic Sinusoidal Endothelial Cells (HHSEC, Caltag SC-5000), on Rat Primary Kidney Glomerular Endothelial cells (Cellbiologics, RN-6014G) and on Bovine Brain Microvascular Endothelial Cells (BBMEC, Caltag SC-B100).
In a first phase, these isolated, purified and cryopreserved cells are thawed and multiplied according to the supplier's recommendations in T75 or T175 flasks pre-coated with 2 μg of fibronectin/[…] (CORNING) for HRGEC, HCMEC, HHSEC and BBMEC, or 2 μg poly-L-lysin/cm^2 (Caltag SC-0403) for HRPTEpiC and HA, or 15 mL/flask 175 cm^2 gelatin-based solution (Cellbiologics) in the presence of endothelial cell supplemented growth medium ECM (P60104, INNOPROT, Caltag, SC-1001) for HRGEC, HCMEC, HHSEC, RPKGEC or BBMEC, or astrocyte cell supplemented growth medium AM (Caltag SC-1801) for HA or epithelial cell supplemented growth medium EpiCM (P60106, INNOPROT) for HRPTEpiC, at 37° C. under 5% CO2 and saturated humidity until their confluency. They are then harvested by trypsinization according to the method described by the supplier for exactly 5 minutes and then reseeded in new flasks a maximum of three times.
To carry out the oxygen and glucose deprivation test followed by their replenishment, the cells will be seeded in 96-well black plates with transparent flat bottom (GREINER). Once a sufficient number of cells has been obtained to allow seeding of 2000 to 15000 cells per well of 96-well plates depending on the cell type, the cells are seeded in these 96-well plates previously coated with an extracellular matrix as listed above for the flasks. The cells are cultured for 5 to 8 days according to the cell type, in the presence of the same growth medium as in the flask as described above except for HRGEC and HRPTEpiC for which DMEM (DUTSCHER) with 1 g/L of supplemented glucose is used, at 37° C. under 5% CO2 and saturated humidity to obtain confluency.
On the first day of oxygen and glucose deprivation, (5th, 6th, 7th or 8th day of culture), the culture conditions are drastically changed. The medium of all plates is removed and replaced by DMEM (DUTSCHER) medium without glucose and supplemented only with 1% penicillin-streptomycin (DUTSCHER). Anidulafungin or micafungin dissolved in dimethyl sulfoxide (DMSO) is then added to each well at the desired concentration, resulting in a maximum of 1% DMSO, and the plates are placed under hypoxia at <1% 02 and 5% CO2 at 37° C. for 24 hours of culture. Each compound was tested in a concentration range.
After 24 hours, the growth medium is changed and replaced by a richer medium, DMEM (DUTSCHER) at 1 g/L glucose and 2% FBS (INNOPROT) and 1% penicillin-streptomycin (DUTSCHER). These media will have been pre-equilibrated at 37° C. in advance. The cells are then returned to culture at 37° C. under 20% 02 and 5% CO2 for 22h.
After 22 hours of reoxygenation, the potential protective effect of anidulafungin or micafungin is measured by a cell viability test using calcein AM (CORNING), which is a dye substrate. The calcein AM can easily cross the cell membrane of the viable cells. The AM ester groups mask the part of the molecule that chelates calcium. Once inside the cells, the (non-fluorescent) calcein AM is hydrolyzed to (fluorescent) calcein by endogenous esterases. The resulting calcein molecule binds to calcium inside the cell and remains trapped inside the cell. These molecules emit strong green fluorescence when subjected to […] of a particular wavelength (495 nm). Since dead cells lack esterase activity, only living cells are labelled.
This cell viability test is performed in two steps. […]

CCCCCOc1ccc(-c2cc(-c3ccc(C(=O)N[C@H]4C[C@@H](O)[C@@H](O)NC(=O)[C@@H]5[C@@H](O)[C@@H](C)CN5C(=O)[C@H]([C@H](O)CC(N)=O)NC(=O)[C@H]([C@H](O)[C@@H](O)c5ccc(O)c(OS(=O)(=O)O)c5)NC(=O)[C@@H]5C[C@@H](O)CN5C(=O)[C@H]([C@@H](C)O)NC4=O)cc3)no2)cc1 [Micafungin, {5-[(1S,2S)-2-[(3S,6S,9S,11R,15S,18S,20R,21R,24S,25S,26S)-3-[(1R)-2-carbamoyl-1-hydroxyethyl]-11,20,21,25-tetrahydroxy-15-[(1R)-1-hydroxyethyl]-26-methyl-2,5,8,14,17,23-hexaoxo-18-[(4-{5-[4-(pentyloxy)phenyl]-1,2-oxazol-3-yl}benzene)amido]-1,4,7,13,16,22-hexaazatricyclo[22.3.0.0]heptacosan-6-yl]-1,2-dihydroxyethyl]-2-hydroxyphenyl}oxidanesulfonic acid] (X1-[Orn(4R-OH,5R-OH)]T[Hyp][hTyr(3S-OH,4S-OH,3'-OSO3H)][Gln(3R-OH)][Pro(3S-OH,4S-Me)]; lactam 1-C)
Globalfluo assay 1 ([Micafungin] log μM 0): 5417339 arbitrary units | Globalfluo assay 2 ([Micafungin] log μM 0): 3464807 arbitrary units | Globalfluo assay 3 ([Micafungin] log μM 0): 4867657 arbitrary units | Mean globalfluo ([Micafungin] log μM 0): 4583268 arbitrary units | Survival rate (%) ([Micafungin] log μM 0): 3% | Globalfluo assay 1 ([Micafungin] log μM 0.1760913): 8740776 arbitrary units | Globalfluo assay 2 ([Micafungin] log μM 0.1760913): 7981119 arbitrary units | Globalfluo assay 3 ([Micafungin] log μM 0.1760913): 5239211 arbitrary units | Mean globalfluo ([Micafungin] log μM 0.1760913): 7320369 arbitrary units | Survival rate (%) ([Micafungin] log μM 0.1760913): 14% | Globalfluo assay 1 ([Micafungin] log μM 0.30103): 3351615 arbitrary units | Globalfluo assay 2 ([Micafungin] log μM 0.30103): 4221516 arbitrary units | Globalfluo assay 3 ([Micafungin] log μM 0.30103): 4567106 arbitrary units | Mean globalfluo ([Micafungin] log μM 0.30103): 4046746 arbitrary units | Survival rate (%) ([Micafungin] log μM 0.30103): 0% | Globalfluo assay 1 ([Micafungin] log μM 0.39794): 5495171 arbitrary units | Globalfluo assay 2 ([Micafungin] log μM 0.39794): 5446233 arbitrary units | Globalfluo assay 3 ([Micafungin] log μM 0.39794): 3835973 arbitrary units | Mean globalfluo ([Micafungin] log μM 0.39794): 4925792 arbitrary units | Survival rate (%) ([Micafungin] log μM 0.39794): 4% | Globalfluo assay 1 ([Micafungin] log μM 0.4771213): 4782175 arbitrary units | Globalfluo assay 2 ([Micafungin] log μM 0.4771213): 7854686 arbitrary units | Globalfluo assay 3 ([Micafungin] log μM 0.4771213): 4782283 arbitrary units | Mean globalfluo ([Micafungin] log μM 0.4771213): 5806381 arbitrary units | Survival rate (%) ([Micafungin] log μM 0.4771213): 8% | Globalfluo assay 1 ([Micafungin] log μM 0.60206): 12878800 arbitrary units | Globalfluo assay 2 ([Micafungin] log μM 0.60206): 13369330 arbitrary units | Globalfluo assay 3 ([Micafungin] log μM 0.60206): 12813230 arbitrary units | Mean globalfluo ([Micafungin] log μM 0.60206): 13020453 arbitrary units | Survival rate (%) ([Micafungin] log μM 0.60206): 37% | Globalfluo assay 1 ([Micafungin] log μM 0.69897): 14177330 arbitrary units | Globalfluo assay 2 ([Micafungin] log μM 0.69897): 11602990 arbitrary units | Globalfluo assay 3 ([Micafungin] log μM 0.69897): 9423392 arbitrary units | Mean globalfluo ([Micafungin] log μM 0.69897): 11734571 arbitrary units | Survival rate (%) ([Micafungin] log μM 0.69897): 31% | Globalfluo assay 1 ([Micafungin] log μM 0.7781513): 5553126 arbitrary units | Globalfluo assay 2 ([Micafungin] log μM 0.7781513): 6638483 arbitrary units | Globalfluo assay 3 ([Micafungin] log μM 0.7781513): 7505823 arbitrary units | Mean globalfluo ([Micafungin] log μM 0.7781513): 6565811 arbitrary units | Survival rate (%) ([Micafungin] log μM 0.7781513): 11% | Globalfluo assay 1 ([Micafungin] log μM 0.845098): 7968558 arbitrary units | Globalfluo assay 2 ([Micafungin] log μM 0.845098): 13328410 arbitrary units | Globalfluo assay 3 ([Micafungin] log μM 0.845098): 4864200 arbitrary units | Mean globalfluo ([Micafungin] log μM 0.845098): 8720389 arbitrary units | Survival rate (%) ([Micafungin] log μM 0.845098): 19% | Globalfluo assay 1 ([Micafungin] log μM 0.90309): 16467230 arbitrary units | Globalfluo assay 2 ([Micafungin] log μM 0.90309): 5461253 arbitrary units | Globalfluo assay 3 ([Micafungin] log μM 0.90309): 9297072 arbitrary units | Mean globalfluo ([Micafungin] log μM 0.90309): 10408518 arbitrary units | Survival rate (%) ([Micafungin] log μM 0.90309): 26% | Globalfluo assay 1 ([Micafungin] log μM 0.9542425): 17001920 arbitrary units | Globalfluo assay 2 ([Micafungin] log μM 0.9542425): 15398170 arbitrary units | Globalfluo assay 3 ([Micafungin] log μM 0.9542425): 11994410 arbitrary units | Mean globalfluo ([Micafungin] log μM 0.9542425): 14798167 arbitrary units | Survival rate (%) ([Micafungin] log μM 0.9542425): 44% | Globalfluo assay 1 ([Micafungin] log μM 1): 24112850 arbitrary units | Globalfluo assay 2 ([Micafungin] log μM 1): 13345620 arbitrary units | Globalfluo assay 3 ([Micafungin] log μM 1): 20572260 arbitrary units | Mean globalfluo ([Micafungin] log μM 1): 19343577 arbitrary units | Survival rate (%) ([Micafungin] log μM 1): 62% | Globalfluo assay 1 ([Micafungin] log μM 1.041393): 8422700 arbitrary units | Globalfluo assay 2 ([Micafungin] log μM 1.041393): 12678250 arbitrary units | Globalfluo assay 3 ([Micafungin] log μM 1.041393): 11578770 arbitrary units | Mean globalfluo ([Micafungin] log μM 1.041393): 10893240 arbitrary units | Survival rate (%) ([Micafungin] log μM 1.041393): 28% | Globalfluo assay 1 ([Micafungin] log μM 1.079181): 11147190 arbitrary units | Globalfluo assay 2 ([Micafungin] log μM 1.079181): 19591720 arbitrary units | Globalfluo assay 3 ([Micafungin] log μM 1.079181): 15002320 arbitrary units | Mean globalfluo ([Micafungin] log μM 1.079181): 15247077 arbitrary units | Survival rate (%) ([Micafungin] log μM 1.079181): 46%
